# Data reported in patent US11717557B2, “Use of PRG4 as an anti-inflammatory agent” (Lubris LLC, priority 2015, dated 2023).
# How the values were obtained:
# [1] = tested on: NFκB nuclear translocation in RA-FLS; assay: NFκB nuclear translocation after TNF-α stimulation of RA-FLS; assay type: cell-based; conditions: TNF-α 5 ng/mL; rhPRG4 200 μg/mL or MG 132 3 μM; 24 hours; p<0.001
# Protocol: RA-FLS (400,000 cells/well) were cultured and stimulated with TNF-α (5 ng/mL) and treated with rhPRG4 (200 μg/mL) or a commercially available NFκB translocation inhibitor MG 132 (3 μM; Tocris Bioscience) for 24 hours in serum free media. Cells were harvested and nuclear extraction was performed using a commercially available kit (Thermo scientific). Total protein was measured using a micro bicinchonic acid (BCA) kit (Thermo scientific) and 3 μg of nuclear extract of each experimental group were used. The p50 subunit of NFκB was detected in the nuclear extract using a commercially available NFκB DNA binding assay kit (Abcam). Data is presented as the number of fold change in NFκB nuclear levels compared to untreated control. To evaluate whether inhibition of NFκB translocation by rhPRG4 is CD44 dependent, the above experiment was repeated in the presence or absence of IM7 CD44 antibody (1:1,000 dilution). Data represents the average of 3 independent experiments with at least triplicate wells per treatment.
# [2] = tested on: Rheumatoid arthritis fibroblast-like synoviocytes (RA-FLS); assay: Cytokine-induced RA-FLS proliferation (MTS); assay type: cell-based; conditions: 48 hours, p<0.05
# Protocol: Rheumatoid arthritis fibroblast-like synoviocytes (RA-FLS; Cell Applications, USA) between 3rd and 6th passages were used to conduct these experiments. In sterile 96 well plates, RA-FLS (5,000 cells per well in 80 μL) were cultured in DMEM supplemented with 1% FBS and 1 mM pyruvate and stimulated with recombinant human interleukin-1 beta (IL-1β; R & D systems) at 20 ng/mL or tumor necrosis factor alpha (TNF-α; R & D systems) at 5 ng/mL for 48 hours at 37° C. in the absence or presence of rhPRG4 or HMW HA at a final concentration of 20, 40 or 80 μg/mL. The total volume in each well was 200 μL. Cell proliferation, an indication of inflammation, was determined using the CellTiter 96 AQueous one solution cell proliferation assay (MTS; Promega, USA) and the 490 nm absorbance was determined. Data is presented as the number of fold change in 490 nm absorbance compared to untreated control RA-FLS. The data represents the average of 3 independent experiments with at least triplicate wells per treatment. To evaluate the contribution of CD44 to the effect of rhPRG4 or HMW HA, RA-FLS were stimulated with IL-1β or TNF-α as described above. Treatment with rhPRG4 or HMW HA was conducted to a final concentration of 80 μg/mL in the absence or presence of IM7 (Abcam, USA), a CD44 neutralizing antibody that recognizes a conserved epitope across all CD44 isoforms (Samson et al., Exp Eye Res, 2014; 127C:14-19), at a final dilution of 1:200. The total volume in each well was 200 μl. Cell proliferation across the experimental groups was determined as described above and data is presented as the number of fold change in 490 nm absorbance compared to untreated control RA-FLS. The data represents the average of 3 independent experiments with at least triplicate wells per treatment.
# [3] = tested on: whole citrated blood; assay: Lubricin on LPS-mediated inflammatory cytokine generation in whole blood; assay type: cell-based, human; conditions: LPS 10 ng/mL then lubricin 0.57 mg/mL, versus LPS alone
# Protocol: The effect of lubricin on LPS-mediated inflammatory cytokine generation was studied using Biochip Array technology. In these studies LPS alone at 10 ng/mL and LPS pre-supplementation at 10 ng/mL followed by lubricin supplementation at 0.57 mg/mL were compared in the whole citrated blood for the generation of various inflammatory cytokines. All samples were incubated for 60 minutes and centrifuged to obtain plasma. This plasma was subsequently analyzed using the biochip array for inflammatory cytokines. LPS was supplemented to whole blood in a 1:10 dilution.
# [4] = tested on: whole blood; assay: Lubricin on TNF-α mediated inflammatory cytokine generation in whole blood; assay type: cell-based, human
# Protocol: The effect of lubricin on TNF-α mediated inflammatory cytokine generation was studied using Biochip Array technology. Recombinant TNF-α was used as a trigger to generate inflammatory cytokines in whole blood. The effect of lubricin was studied on the TNF-α mediated generation of various cytokines. TNF-α alone at a concentration of […] was supplemented to the whole blood which was incubated for 60 minutes at 37° C. TNF-α was supplemented to whole blood in a 1:10 dilution. The modulatory effects of lubricin on TNF-α-mediated generation of various cytokines were studied by supplementing lubricin at 0.57 mg/mL in the whole blood immediately prior to addition of TNF-α. After 60 minutes plasma was obtained from centrifugation and analyzed for inflammatory cytokine using Randox Biochip arrays.
# [5] = tested on: normal synovial fluid cells; assay: Cytokines secreted by normal synoviocytes (Luminex); assay type: cell-based, human; conditions: rhPRG4 90 μg/mL, 24 hours, lubricin vs. PBS
# Protocol: Synovial fluid cells were obtained from normal and osteoarthritic (OA) patients and purified with CD90+ following an immune cell depletion. The cells were plated at 10,000 per well and suspended in media containing DMEM, heat-inactivated Hyclone FBS (10%), and Anti-Anti (1%). The assays contained the cell suspension (cells+ media) at 180 μL and the ligands at 20 μL for a total volume of 200 μL. Recombinant lubricin (rhPRG4) was then introduced to the cells at a concentration of 90 μg/mL and the negative control was PBS. The plate was then incubated at 37° C. at 5% CO2 for 24 hours, after which the supernatants were collected for cytokine analysis via the Luminex multiplex platform.
substance,measurement,setting,value
"rhPRG4: full-length recombinant human PRG4 (lubricin) glycoprotein produced by CHO-M cells (Lubris), Mr≅240 KDa",NFκB nuclear translocation compared to TNF-α-treated RA-FLS,[1],significantly reduced
same,RA-FLS proliferation with IL-1β stimulation,"[2]; IL-1β 20 ng/mL, treatment 40 and 80 μg/mL",significantly suppressed
same,RA-FLS proliferation with TNF-α stimulation,"[2]; TNF-α 5 ng/mL, treatment 20, 40 and 80 μg/mL",significantly suppressed
same,"IL-4, IL-6, IL-8, IL-10, VEGF, TNF-α, IL-1β, MCP-1 and EGF",[3]; 60 minutes,decrease
same,"EGF, IL10, VEGF, MCP1, IL1b and TNF levels",[3],marked decrease
same,"IL-6, IL-8, IL-10, VEGF, TNF-α, IL-1β and EGF","[4]; lubricin 0.57 mg/mL before TNF-α 100 mg/mL, 60 minutes at 37° C., versus TNF-α alone",decrease
same,decrease of the levels of cytokines,"[4]; lubricin 0.57 mg/mL, versus TNF-α alone",10-100%
same,TNF-α stimulated IFN-γ and TNF-α,"[4]; lubricin 0.57 mg/mL, versus stimulation in the absence of lubricin",most dramatic decrease
same,cytokine response,[5],did not show any changes
